These molecules were tested against T1, human PAD4 (Homo sapiens, UniProt Q9UM07) (assay: In vitro PAD4 BAEE biochemical assay). Conditions: human PAD4, BAEE substrate; 5 nM PAD4, 2 mM calcium chloride, 3 mM BAEE; geometric mean of multiple experiments.
T1 construct: human PAD4 (NM_012387), A2P663, was PCR amplified; His-SUMO (N, cleaved yes); made in house; host or cells: E. coli BL21(DE3)
T1 sequence (Q9UM07 2-663): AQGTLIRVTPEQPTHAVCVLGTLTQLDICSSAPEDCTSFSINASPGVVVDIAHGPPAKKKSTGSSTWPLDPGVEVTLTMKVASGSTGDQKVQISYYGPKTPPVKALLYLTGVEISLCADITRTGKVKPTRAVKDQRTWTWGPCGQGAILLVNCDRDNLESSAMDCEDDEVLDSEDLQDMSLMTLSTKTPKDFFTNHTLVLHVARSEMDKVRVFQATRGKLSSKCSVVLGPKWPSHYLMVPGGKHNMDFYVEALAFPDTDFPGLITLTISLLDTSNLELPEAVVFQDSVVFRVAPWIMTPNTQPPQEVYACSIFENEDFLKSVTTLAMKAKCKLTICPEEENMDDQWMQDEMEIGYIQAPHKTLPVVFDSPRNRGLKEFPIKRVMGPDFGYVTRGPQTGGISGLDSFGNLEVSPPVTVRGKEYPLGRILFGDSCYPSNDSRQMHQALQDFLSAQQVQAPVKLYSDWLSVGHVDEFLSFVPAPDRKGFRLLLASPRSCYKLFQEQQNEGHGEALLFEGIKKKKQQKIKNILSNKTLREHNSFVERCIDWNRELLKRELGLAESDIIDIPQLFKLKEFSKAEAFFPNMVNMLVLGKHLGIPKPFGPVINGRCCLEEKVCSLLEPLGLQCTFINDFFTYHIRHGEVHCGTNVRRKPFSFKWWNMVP
In short: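 Ammonia release from BAEE deimination monitored by o-phthalaldehyde amine coupling (1 h, 25 °C) after EDTA stop. Final conditions: 5 nM tag-free recombinant human PAD4 (E. coli), 2 mM CaCl2, 3 mM BAEE, pH 7.6 MOPS with DTT; 30 min compound preincubation, then 2 h reaction at 25 °C.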
In the case of `CCN(c1ccc2cc(-c3nc4cc(C(=O)N5[C@H]6CC[C@@H]5[C@H](N)C6)cc(OC)n4c3C)n(CC3CC3)c2n1)S(C)(=O)=O` [Example 475, ~{N}-[2-[7-[(1~{R},2~{R}, 4~{S})-2-amino-7-azabicyclo[2.2.1]heptane-7-carbonyl]-5-methoxy-3-methylimidazo[1,2-a]pyridin-2-yl]-1-(cyclopropylmethyl)pyrrolo [2,3-b]pyridin-6-yl]-~{N}-ethylmethanesulfonamide], the IC50 is reported as 75.1 nM.
With `COc1cc(C(=O)N2[C@H]3CC[C@@H]2[C@H](N)C3)cc2nc(-c3cc4ccc(-c5ccccc5C)nc4n3CC3CC3)c(C)n12` [Example 550, [(1~{R},2~{R},4~{S})-2-amino-7-azabicyclo [2.2.1]heptan-7-yl]-[2-[1-(cyclopropylmethyl)-6-(2-methylphenyl)pyrrolo [2,3-b]pyridin-2-yl]-5-methoxy-3-methylimidazo [1,2-a]pyridin-7-yl]methanone] the IC50 was 1850 nM.
`COc1cc(C(=O)N2[C@H]3CC[C@@H]2[C@H](N)C3)cc2nc(-c3cc4ccc([C@@H](C)NC(=O)C5(F)CC5)nc4n3CC3CC3)c(C)n12` [Example 136, ~{N}-[(1~{R})-1-[2-[7-[(1~{R},2~{R},4~{S})-2-amino-7-azabicyclo[2.2.1]heptane-7-carbonyl]-5-methoxy-3-methylimidazo [1,2-a]pyridin-2-yl]-1-(cyclopropylmethyl)pyrrolo [2,3-b]pyridin-6-yl]ethyl]-1-fluorocyclopropane-1-carboxamide] was tested, and the IC50 was 143 nM.
`CCc1ccc2cc(-c3nc4cc(C(=O)N5[C@H]6CC[C@@H]5[C@H](N)C6)cc(OC)n4c3C)n(CC3CCCC3)c2n1` [Example 509, [(1~{R},2~{R},4~{S})-2-amino-7-azabicyclo [2.2.1]heptan-7-yl]-[2-[1-(cyclopentylmethyl)-6-ethylpyrrolo[2,3-b]pyridin-2-yl]-5-methoxy-3-methylimidazo[1,2-a]pyridin-7-yl]methanone] gave an IC50 of 655 nM.
Molecule `COc1cc(C(=O)N2C[C@H](N)CC[C@@H]2C)cc2nc(-c3cc4ccc(N(C)S(C)(=O)=O)nc4n3CC3CC3)c(C)n12` [Example 481, N-(2-(7-((2S,5R)-5-amino-2-methylpiperidine-1-carbonyl)-5-methoxy-3-methylimidazo[1,2-a]pyridin-2-yl)-1-(cyclopropylmethyl)-1H-pyrrolo[2,3-b]pyridin-6-yl)-N-methylmethanesulfonamide] has an IC50 of 152 nM.
Work on `COc1cc(C(=O)N2C[C@H](N)CC[C@@H]2C)cc2nc(-c3cc4ccc(N(C(F)F)S(C)(=O)=O)nc4n3CC3CC3)c(C)n12` [Example 412, ~{N}-[2-[7-[(2~{S},5~{R})-5-amino-2-methylpiperidine-1-carbonyl]-5-methoxy-3-methylimidazo [1,2-a]pyridin-2-yl]-1-(cyclopropylmethyl)pyrrolo-[2,3b]pyridin-6-yl]-~{N}-(difluoromethyl) methanesulfonamide] yielded an IC50 of 156 nM.
In the case of `COc1cc(C(=O)N2CCC[C@@H](N)C2)cc2nc(-c3cc4ccc(-c5cccc6c5CN(C)C6=O)nc4n3CC3CC3)c(C)n12` [Example 601, 4-[2-[7-[(3~{R})-3-aminopiperidine-1-carbonyl]-5-methoxy-3-methylimidazo[1,2-a]pyridin-2-yl]-1-(cyclopropylmethyl)pyrrolo[2,3-b]pyridin-6-yl]-2-methyl-3~{H}-isoindol-1-one], the IC50 is reported as 6880 nM.
Work on `COc1cc(C(=O)N2[C@H]3CC[C@@H]2[C@H](N)C3)cc2nc(-c3cc4ccc([C@@H](C)NC(=O)c5ccccc5)nc4n3CC3CC3)c(C3CC3)n12` [Example 142, ~{N}-[(1~{R})-1-[2-[7-[(1~{R},2~{R},4~{S})-2-amino-7-azabicyclo[2.2.1]heptane-7-carbonyl]-3-cyclopropyl-5-methoxyimidazo[1,2-a]pyridin-2-yl]-1-(cyclopropylmethyl)pyrrolo [2,3-b]pyridin-6-yl]ethyl] benzamide] yielded an IC50 of 121 nM.
With `COc1cc(C(=O)N2[C@H]3CC[C@@H]2[C@H](N)C3)cc2nc(-c3cc4ccc([C@@H](C)NC(=O)c5ccccc5C(F)(F)F)nc4n3CC3CC3)c(C)n12` [Example 10, ~{N}-[(1~{R})-1-[2-[7-[(1~{R},2~{R},4~{S})-2-amino-7-azabicyclo [2.2.1]heptane-7-carbonyl]-5-methoxy-3-methylimidazo [1,2-a]pyridin-2-yl]-1-(cyclopropylmethyl)pyrrolo[2,3-b]pyridin-6-yl]ethyl]-2-(trifluoromethyl) benzamide] the IC50 was 259 nM.
Molecule `COc1cc(C(=O)N2[C@H]3CC[C@@H]2[C@H](N)C3)cc2nc(-c3cc4ccc([C@@H](C)NC(=O)c5ccccc5C(F)F)nc4n3CC3CC3)c(C)n12` [Example 11, ~{N}-[(1~{R})-1-[2-[7-[(1~{R},2~{R},4~{S})-2-amino-7-azabicyclo [2.2.1]heptane-7-carbonyl]-5-methoxy-3-methylimidazo [1,2-a]pyridin-2-yl]-1-(cyclopropylmethyl)pyrrolo[2,3-b]pyridin-6-yl]ethyl]-2-(difluoromethyl) benzamide] has an IC50 of 253 nM.
`COc1cc(C(=O)N2[C@H]3CC[C@@H]2[C@H](N)C3)cc2nc(-c3cc4ccc([C@@H](C)NC(=O)c5ccncc5F)nc4n3CC3CC3)c(C)n12` [Example 52] gave an IC50 of 31.4 nM.
Molecule `COc1cc(C(=O)N2[C@H]3CC[C@@H]2[C@H](N)C3)cc2nc(-c3cc4ccc([C@@H](C)Nc5ccc(F)cn5)nc4n3CC3CC3)c(C)n12` [Example 259, ((1R,2R,4S)-2-amino-7-azabicyclo[2.2.1]heptan-7-yl)(2-(1-(cyclopropylmethyl)-6-((R)-1-((5-fluoropyridin-2-yl)amino)ethyl)-1H-pyrrolo[2,3-b]pyridin-2-yl)-5-methoxy-3-methylimidazo[1,2-a]pyridin-7-yl)methanone] has an IC50 of 180 nM.
Molecule `CCc1ccc2cc(-c3nc4cc(C(=O)N5[C@H]6CC[C@@H]5[C@H](N)C6)cc(OC)n4c3C3CCC3)n(CC3CC3)c2n1` [Example 577, [(1~{R},2~{R},4~{S})-2-amino-7-azabicyclo [2.2.1]heptan-7-yl]-[3-cyclobutyl-2-[1-(cyclopropylmethyl)-6-ethylpyrrolo[2,3-b]pyridin-2-yl]-5-methoxyimidazo [1,2-a]pyridin-7-yl]methanone] has an IC50 of 996 nM.
For `COc1cc(C(=O)N2[C@H]3CC[C@@H]2[C@H](N)C3)cc2nc(-c3cc4ccc([C@@H](C)NC(=O)NCc5cccnc5)nc4n3CC3CC3)c(C)n12` [Example 226, 1-[(1~{R})-1-[2-[7-[(1~{R},2~{R},4~{S})-2-amino-7-azabicyclo[2.2.1]heptane-7-carbonyl]-5-methoxy-3-methylimidazo [1,2-a]pyridin-2-yl]-1-(cyclopropylmethyl)pyrrolo [2,3-b]pyridin-6-yl]ethyl]-3-(pyridin-3-ylmethyl)urea], the IC50 was 42.3 nM.
Molecule `COc1cc(C(=O)N2[C@H]3CC[C@@H]2[C@H](N)C3)cc2nc(-c3cc4ccc([C@@H](C)CC(=O)N5CCCC5)nc4n3CC3CC3)c(C)n12` [Example 523, (3~{S})-3-[2-[7-[(1~{R},2~{R},4~{S})-2-amino-7-azabicyclo[2.2.1]heptane-7-carbonyl]-5-methoxy-3-methylimidazo [1,2-a]pyridin-2-yl]-1-(cyclopropylmethyl)pyrrolo[2,3-b]pyridin-6-yl]-1-pyrrolidin-1-ylbutan-1-one] has an IC50 of 59.1 nM.
`CCc1cc(C(=O)N2CCC[C@@H](N)C2)cc2nc(-c3cc4ccc(N(C(F)F)S(C)(=O)=O)nc4n3CC3CC3)c(C)n12` [Example 427, ~{N}-[2-[7-[(3~{R})-3-aminopiperidine-1-carbonyl]-5-ethyl-3-methylimidazo [1,2-a]pyridin-2-yl]-1-(cyclopropylmethyl)pyrrolo [2,3-b]pyridin-6-yl]-~{N}-(difluoromethyl) methanesulfonamide] was tested, and the IC50 was 94.7 nM.
In the case of `COc1cc(C(=O)N2[C@H]3CC[C@@H]2[C@H](N)C3)cc2nc(-c3cc4ccc([C@@H](C)NC(=O)C5CC5)nc4n3CC3CC3)c(C)n12` [Example 78, ~{N}-[(1~{R})-1-[2-[7-[(1~{R},2~{R},4~{S})-2-amino-7-azabicyclo[2.2.1]heptane-7-carbonyl]-5-methoxy-3-methylimidazo [1,2-a]pyridin-2-yl]-1-(cyclopropylmethyl)pyrrolo [2,3-b]pyridin-6-yl]ethyl] cyclopropanecarboxamide], the IC50 is reported as 41.4 nM.
`COc1cc(C(=O)N2[C@H]3CC[C@@H]2[C@H](N)C3)cc2nc(-c3cc4ccc([C@@H](C)NC(C)=O)nc4n3CC3CC3)c(C3CC3)n12` [Example 178, ~{N}-[(1~{R})-1-[2-[7-[(1~{R},2~{R},4~{S})-2-amino-7-azabicyclo[2.2.1]heptane-7-carbonyl]-3-cyclopropyl-5-methoxyimidazo [1,2-a]pyridin-2-yl]-1-(cyclopropylmethyl)pyrrolo [2,3-b]pyridin-6-yl]ethyl] acetamide] was tested, and the IC50 was 89.4 nM.
In the case of “[(1~{R},2~{R},4~{S})-2- amino-7-azabicyclo [2.2.1]heptan-7-yl]-[2-[1- (cyclopropylmethyl)-6-(6- hydroxy-2-methylpyridin- 3-yl)pyrrolo[2,3-b] pyridin-2-yl]-5-methoxy-3- methylimidazo[1,2-a] pyridin-7-yl]methanone [Example 563]”, the IC50 is reported as 106 nM.
Molecule `COc1cc(C(=O)N2[C@H]3CC[C@@H]2[C@H](N)C3)cc2nc(-c3cc4ccc([C@@H](C)NC(=O)N5CCCC5)nc4n3CC3CC3)c(C3CC3)n12` [Example 249, ~{N}-[(1~{R})-1-[2-[7-[(1~{R},2~{R},4~{S})-2-amino-7-azabicyclo[2.2.1]heptane-7-carbonyl]-3-cyclopropyl-5-methoxyimidazo[1,2-a]pyridin-2-yl]-1-(cyclopropylmethyl)pyrrolo [2,3-b]pyridin-6-yl]ethyl] pyrrolidine-1-carboxamide] has an IC50 of 66 nM.

— patent US12240862B2, “Inhibitors of peptidylarginine deiminases” (Gilead Sciences, Inc., priority 2020, dated 2025)
